1 molecule from US20250340661A1, “ANTI CD40 ANTIBODY, ANTIGEN BINDING FRAGMENT AND MEDICAL USE THEREOF” (Jiangsu Hengrui Pharmaceuticals Co., Ltd., priority 2021, published 2025) can be followed below.

The subject of this assay is human CD40 transgenic mice. Put plainly: Mouse skin graft rejection model. The format is in vivo. The settings on record: for Skin graft score: 3 mpk. From the text:
Male Balb/c mice, 6 weeks old, were purchased from the Laboratory Animal Management Department, Shanghai Institute of Planned Parenthood Research. Housing environment: SPF; certification number: 20180006023393.
On day −2 of the experiment, the mice were intraperitoneally injected with tacrolimus FK506 or CD40 antagonistic antibodies. On day 0 of the experiment, donor Balb/c mice and C57BL6/J mice were anesthetized with 4% chloral hydrate. The tails of the donor mice were removed, and full circles of skin, 1 cm in length, were isolated from the tails. The hair on the acceptor mice's back was removed, and an incision was made along the skin layer. An equal area of skin was removed while preserving the back fat and connective tissue. The donor skin was placed on the acceptor mice's incision site, and the incision was closed with glue. The mice were then placed back in cages to recover.
The mice were dosed according to the administration regimens in Table 17. After 7 days of recovery, the mouse skin survival was observed daily and rejection scores were recorded.

Regarding `C=CC[C@@H]1/C=C(\C)C[C@H](C)C[C@H](OC)[C@H]2O[C@@](O)(C(=O)C(=O)N3CCCC[C@H]3C(=O)O[C@H](/C(C)=C/[C@@H]3CC[C@@H](O)[C@H](OC)C3)[C@H](C)[C@@H](O)CC1=O)[C@H](C)C[C@@H]2OC` [FK506, tacrolimus, reference compound], the Skin graft score came to 2.5 (8 days, scale 3 (no rejection) to 0); 1.5 (10 days, scale 3 to 0); 0.5 (15 days, scale 3 to 0); 0 (20 days, scale 3 to 0). The “Skin graft survival rate (%)” value (Day 15, 3 mpk ip) was 16.7%.
